This note sets out measurements from ChEMBL document CHEMBL3244131, “Synthesis of cephalosporin-4-aldehydes” (1977).

A word on the MIC: it is the smallest concentration in the dilution series that meets the test's criterion for growth inhibition. Lower therefore signals greater potency.

The structures appear in SMILES notation. Converted amounts (≈) assume the structure as drawn.

Common to all, as to type: functional
For one test, the system named is Escherichia coli. Put plainly: Antimicrobial activity against Escherichia coli ATCC 25922-1 by threefold dilution agar inclusion method.
A further test deals with Staphylococcus aureus. Briefly: Antimicrobial activity against Staphylococcus aureus ATCC 6538P by threefold dilution agar inclusion method.
The test system of the next test is Proteus vulgaris. Briefly: Antimicrobial activity against Proteus vulgaris ATCC 9484 by threefold dilution agar inclusion method.
A further test relates to Streptococcus pyogenes. Put plainly: Antimicrobial activity against Streptococcus pyogenes ATCC 8668 by threefold dilution agar inclusion method.
The test system of another test is Klebsiella pneumoniae. Briefly: Antimicrobial activity against Klebsiella pneumoniae ATCC 10031-2 by threefold dilution agar inclusion method.

Take `CC(=O)OCC1=C(C=O)N2C(=O)[C@@H](NC(=O)Cc3cccs3)[C@H]2SC1`: the MIC is over 100 µg/mL with Escherichia coli; 30 µg/mL (≈ 78.9 µM) against Staphylococcus aureus; over 100 µg/mL in the test with Proteus vulgaris; 30 µg/mL (≈ 78.9 µM) against Streptococcus pyogenes; over 100 µg/mL against Klebsiella pneumoniae.

On to `CC(=O)OCC1=C(C2OCCO2)N2C(=O)[C@@H](NC(=O)Cc3cccs3)[C@H]2SC1`, for which the MIC against Escherichia coli, in the test with Staphylococcus aureus, against Proteus vulgaris, in the test with Streptococcus pyogenes and in the test on Klebsiella pneumoniae was over 100 µg/mL in each case.

On to `CC(=O)OCC1=C(/C=N/O)N2C(=O)[C@@H](NC(=O)Cc3cccs3)[C@H]2SC1`, for which the minimal inhibitory concentration (MIC) with Escherichia coli, with Staphylococcus aureus, against Proteus vulgaris, against Streptococcus pyogenes and in the test on Klebsiella pneumoniae was over 100 µg/mL in each case.

Regarding `CO/N=C/C1=C(COC(C)=O)CS[C@@H]2[C@H](NC(=O)Cc3cccs3)C(=O)N12`, the MIC in the test with Escherichia coli, in the test on Staphylococcus aureus, with Proteus vulgaris, in the test with Streptococcus pyogenes and against Klebsiella pneumoniae was over 100 µg/mL in each case.

For the molecule `CC(=O)OCC1=C(/C=N/NC(N)=O)N2C(=O)[C@@H](NC(=O)Cc3cccs3)[C@H]2SC1`, the MIC against Escherichia coli, against Staphylococcus aureus, in the test on Proteus vulgaris, against Streptococcus pyogenes and in the test on Klebsiella pneumoniae was over 100 µg/mL throughout.

Take `CC(=O)OCC1=C(/C=N/OCC(=O)O)N2C(=O)[C@@H](NC(=O)Cc3cccs3)[C@H]2SC1`: the minimum inhibitory concentration (MIC) against Escherichia coli, in the test on Staphylococcus aureus, in the test on Proteus vulgaris, in the test on Streptococcus pyogenes and in the test with Klebsiella pneumoniae was over 100 µg/mL in each case.

`CC(=O)OCC1=C(/C=C/C(=O)[O-])N2C(=O)[C@@H](NC(=O)Cc3cccs3)[C@H]2SC1.[Na+]`: the minimum inhibitory concentration (MIC) in the test on Escherichia coli, against Staphylococcus aureus, against Proteus vulgaris, with Streptococcus pyogenes and in the test on Klebsiella pneumoniae was over 100 µg/mL in each case.

As to `CC(=O)OCC1=C(C(=O)O)N2C(=O)[C@@H](NC(=O)Cc3cccs3)[C@H]2SC1` [CEPHALOTHIN], the MIC in the test with Escherichia coli was 30 µg/mL (≈ 75.7 µM); in the test on Staphylococcus aureus, 0.3 µg/mL (≈ 0.757 µM); in the test with Proteus vulgaris it was over 100 µg/mL; with Streptococcus pyogenes, under 0.1 µg/mL; with Klebsiella pneumoniae it was 1 µg/mL (≈ 2.52 µM).
